Test results as given in ChEMBL document CHEMBL1201862, “PubChem BioAssay data set” (2004).
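Following 48 hours of exposure in 96-well plates, responses at five concentrations were used to interpolate endpoints linearly. GI50 marks 50% less growth.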 Calls of active or inactive are those of the source. No stated cut-off is given here; in the data, active = GI50 up to about 1.1 µM and inactive = higher.

How the values were obtained:
Experiment in all cases: NCI tumour cell line growth inhibition, 48 h
[1] = tested on: UACC-62
[2] = tested on: A549
[3] = tested on: UACC-257
[4] = tested on: SNB-19
[5] = tested on: SNB-75
[6] = tested on: HL-60
[7] = tested on: U-251
[8] = tested on: HCC 2998
[9] = tested on: CCRF-CEM
[10] = tested on: CAKI-1
[11] = tested on: NCI-H23
[12] = tested on: OVCAR-3
[13] = tested on: M14
[14] = tested on: 786-0
[15] = tested on: OVCAR-8
[16] = tested on: MOLT-4
[17] = tested on: NCI-H522
[18] = tested on: ACHN
[19] = tested on: OVCAR-5

Measured: GI50

CC1(C)CC(=O)C=C(NC(=O)c2ccccc2)C1
inactive: [1] > 100 µM | [2] > 100 µM | [3] > 100 µM | [4] > 100 µM | [5] > 100 µM | [6] > 100 µM | [7] > 100 µM | [8] > 100 µM | [9] > 100 µM | [10] > 100 µM | [11] > 100 µM | [12] > 100 µM | [13] > 100 µM | [14] > 100 µM | [15] > 100 µM | [16] > 100 µM | [17] > 100 µM

COc1cc2ccnc3c2c(c1OC)-c1coc(SC)c1-3
inactive: [1] 86.1 µM | [2] > 100 µM | [3] > 100 µM | [4] > 100 µM | [5] 19.7 µM | [18] > 100 µM | [6] 9.18 µM | [7] 67.1 µM | [8] > 100 µM | [9] > 10 µM | [10] 20.8 µM | [13] > 100 µM | [14] 57 µM | [15] 35.2 µM | [16] 22.1 µM | [17] 32.4 µM | [19] > 100 µM

Nc1cc(=O)n(-c2ccccc2)c(=S)n1-c1ccccc1
inactive: [1] > 100 µM | [2] > 100 µM | [3] > 100 µM | [4] > 100 µM | [5] > 100 µM | [18] > 100 µM | [7] > 100 µM | [8] > 100 µM | [9] > 100 µM | [10] > 100 µM | [12] > 100 µM | [13] > 100 µM | [14] > 100 µM | [15] > 100 µM | [16] > 100 µM | [17] > 100 µM | [19] > 100 µM

COc1ccc2nccc(C3=CCC4CCN(C(=O)c5ccccc5)C3C4)c2c1 (stereo not drawn)
inactive: [1] > 100 µM | [2] > 100 µM | [3] > 100 µM | [4] > 100 µM | [5] 93.5 µM | [6] 51.6 µM | [7] > 100 µM | [8] > 100 µM | [9] 99.8 µM | [10] > 100 µM | [11] > 100 µM | [12] 86.9 µM | [13] > 100 µM | [14] > 100 µM | [15] > 100 µM | [16] 44.9 µM | [17] > 100 µM
